# In patent publication US8258311B2, “Human protein tyrosine phosphatase inhibitors and methods of use” (Aerpio Therapeutics Inc., priority 2006, dated 2012):
# Legend:
# [1] = Rat hindlimb model: body weight; type: in vivo; settings: mean ± SE, in g (unit assumed)
# [2] = test system: hindlimb ischemia; experiment: Rat hindlimb model of collateral development: blood flow during treadmill exercise (microspheres); type: in vivo; settings: for Blood Flow During exercise Calf (GPS): mean ± SE
# From the text: The Rat hindlimb model is used to evaluate angiogenic properties of novel HPTPb inhibitors. Specifically to determine if there is enhanced blood flow to the collateral dependent region of the leg post ischemia when the animal is in an exercise challenged state. […] An initial surgery is done to create hindlimb ischemia and implant osmotic pumps essentially as previously described with minor alterations. […] Following induction, animals are transferred to a surgical mat and anesthesia is continued via a non-rebreathing circuit. A warming lamp is positioned above the rat and a rectal probe is placed to monitor the animal's body temperature. The groin areas bilaterally are clipped and prepared with alternating Betadine and alcohol scrubs (3×) and a sterile drape is placed over the rat. The left femoral artery is exposed through a skin incision and subsequently ligated in two positions 1 cm apart; distal to the inguinal ligament and proximal to the femoral circumflex artery. The skin is closed using either skin staples or Vetbond. The same procedure is repeated on the right side. […] Prior to implantation, osmotic pumps are filled with VEGF165 solution at a dose of 15 μg/kg/day, and primed overnight inside sterile saline beakers in a water bath (37° C.). Stretched PESO catheters coated with PPG (Poly propylene glycol Aldrich # 20-235-5) are attached using sterile technique and in accordance with manufacture's instructions the afternoon prior to surgery. For pump placement, an incision is made to expose the right jugular vein, an area is tunneled SubQ from the right side of the neck to the back and the pump is placed in the resulting SubQ pocket. The vessel is ligated with 4-0 silk, a cut is made in the vessel just distal to the tie and the catheter from the osmotic pump is threaded down stream (approx 2 cm) and secured with a second tie. The skin is closed in the same manner as above. Two weeks after the ligation surgery the rat underwent a second acute surgery to place indwelling catheters for microsphere measurements. Rats are anesthetized as described above. The animal is clipped, prepped, and EMLA cream is applied to each entry site. First an incision is made longitudinally at the ventral base of the tail using a 10 blade. A tapered PE 50 catheter is inserted approximately 3 cm into the ventral tail artery and anchored into place. The end of the catheter is then wrapped around the tail and tunneled SubQ over the back, exiting between the shoulder blades. Following tail artery cannulation, a midline neck incision is made to expose the left carotid artery for occlusive cannulation. A tapered PE 50 catheter is placed 3 cm into the carotid and the distal end is tunneled SubQ, exiting between the shoulder blades. The neck is closed with either skin stables or Vetbond and EMLA cream is applied. The exit site is closed around the catheters with a purse string suture stitch. The ends of the catheters are cauterized shut and the rat is allowed to recover from anesthesia for at least 4 hours. For blood flow measurements, rats are placed onto the treadmill and the catheters are connected to extension tubing via 22 gage male-male connectors. For microsphere withdrawals and blood pressure measurements, the tail artery catheter is connected to a syringe (coated with tween and heparin-), which is “T” Ed to a withdrawal pump and a pressure transducer. The carotid catheter is used for injecting the microspheres. The rat began running at speed 20 m/min and an elevation of 7°. […] The pump is set to stop at 90 seconds. The […] stopped, the extension lines are replaced and the animal's lines are flushed, and the animal allowed to rest. The syringe and lines are removed from the pump and the reference blood sample is place in a labeled tube for processing. […] At the completion of the second run, the animal is euthanized with 0.3 ml of Buthaneasia. Following euthanasia, tissues are removed, trimmed, weighed, recorded, and placed in marked tubes for processing. […]
# [3] = Rat hindlimb model: blood pressure and heart rate; type: in vivo; settings: for Blood Pressure Post-Exercise / Heart Rate Exercise / Heart Rate Post-Exercise / Heart Rate Pre-Exercise / Blood Pressure Exercise / Blood Pressure Pre-Exercise: mean ± SE; for Blood Pressure Pre-Exercise: two weeks after ligation
# From the text: An initial surgery is done to create hindlimb ischemia and implant osmotic pumps essentially as previously described with minor alterations. […] Following induction, animals are transferred to a surgical mat and anesthesia is continued via a non-rebreathing circuit. A warming lamp is positioned above the rat and a rectal probe is placed to monitor the animal's body temperature. The groin areas bilaterally are clipped and prepared with alternating Betadine and alcohol scrubs (3×) and a sterile drape is placed over the rat. The left femoral artery is exposed through a skin incision and subsequently ligated in two positions 1 cm apart; distal to the inguinal ligament and proximal to the femoral circumflex artery. The skin is closed using either skin staples or Vetbond. The same procedure is repeated on the right side. […] Stretched PESO catheters coated with PPG (Poly propylene glycol Aldrich # 20-235-5) are attached using sterile technique and in accordance with manufacture's instructions the afternoon prior to surgery. For pump placement, an incision is made to expose the right jugular vein, an area is tunneled SubQ from the right side of the neck to the back and the pump is placed in the resulting SubQ pocket. The vessel is ligated with 4-0 silk, a cut is made in the vessel just distal to the tie and the catheter from the osmotic pump is threaded down stream (approx 2 cm) and secured with a second tie. The skin is closed in the same manner as above.
# Two weeks after the ligation surgery the rat underwent a second acute surgery to place indwelling catheters for microsphere measurements. Rats are anesthetized as described above. The animal is clipped, prepped, and EMLA cream is applied to each entry site. First an incision is made longitudinally at the ventral base of the tail using a 10 blade. A tapered PE 50 catheter is inserted approximately 3 cm into the ventral tail artery and anchored into place. The end of the catheter is then wrapped around the tail and tunneled SubQ over the back, exiting between the shoulder blades. Following tail artery cannulation, a midline neck incision is made to expose the left carotid artery for occlusive cannulation. A tapered PE 50 catheter is placed 3 cm into the carotid and the distal end is tunneled SubQ, exiting between the shoulder blades. The neck is closed with either skin stables or Vetbond and EMLA cream is applied. The exit site is closed around the catheters with a purse string suture stitch. The ends of the catheters are cauterized shut and the rat is allowed to recover from anesthesia for at least 4 hours.
# For blood flow measurements, rats are placed onto the treadmill and the catheters are connected to extension tubing via 22 gage male-male connectors. For microsphere withdrawals and blood pressure measurements, the tail artery catheter is connected to a syringe (coated with tween and heparin-), which is “T” Ed to a withdrawal pump and a pressure transducer. The carotid catheter is used for injecting the microspheres. The rat began running at speed 20 m/min and an elevation of 7°. One minute into the run the pump is turned on at a rate of 0.5 ml/min, ten seconds later 0.5 ml (1×10^6 spheres/mL) of florescent microspheres are infused into the carotid line followed by a 0.5 ml flush over 30 seconds. The pump is set to stop at 90 seconds. The tmill is stopped, the extension lines are replaced and the animal's lines are flushed, and the animal allowed to rest. The syringe and lines are removed from the pump and the reference blood sample is place in a labeled tube for processing. The withdrawal syringe and extension lines are flushed 3 times with 2% tween, waste is flushed the reference blood tube A new syringe and lines are place on the pump and the procedure is repeated with the animal running at a faster speed, (25 m/min) and a different microsphere color is injected. At the completion of the second run, the animal is euthanized with 0.3 ml of Buthaneasia.
# [4] = molecular target: T1, PTP1B (Homo sapiens, UniProt P18031); experiment: PTP1B inhibition (IC50); type: biochemical
# T1 sequence (P18031 1-435): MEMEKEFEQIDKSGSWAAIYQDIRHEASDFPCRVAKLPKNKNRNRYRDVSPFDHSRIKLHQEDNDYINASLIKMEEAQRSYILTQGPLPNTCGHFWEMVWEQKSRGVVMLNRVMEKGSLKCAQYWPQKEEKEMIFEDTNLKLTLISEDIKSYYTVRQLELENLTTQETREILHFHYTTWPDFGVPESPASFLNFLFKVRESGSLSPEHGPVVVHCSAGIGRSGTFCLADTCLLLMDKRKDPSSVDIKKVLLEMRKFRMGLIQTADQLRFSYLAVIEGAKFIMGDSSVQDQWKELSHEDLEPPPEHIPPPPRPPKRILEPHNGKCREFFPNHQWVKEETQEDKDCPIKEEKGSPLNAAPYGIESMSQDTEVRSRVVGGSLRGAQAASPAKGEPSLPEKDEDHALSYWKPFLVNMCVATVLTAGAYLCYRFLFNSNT
# [5] = molecular target: HPTPβ (Homo sapiens, UniProt P23467); experiment: HPTPβ inhibition (IC50); type: biochemical
# [6] = continuous SubQ infusion High 15 mg/kg/d
# [7] = continuous SubQ infusion Low 5 mg/kg/d
# [8] = continuous SubQ infusion High 15 mg/kg/d, in mmHg (unit assumed)
# HPTPβ, sequence (P23467 23-1997): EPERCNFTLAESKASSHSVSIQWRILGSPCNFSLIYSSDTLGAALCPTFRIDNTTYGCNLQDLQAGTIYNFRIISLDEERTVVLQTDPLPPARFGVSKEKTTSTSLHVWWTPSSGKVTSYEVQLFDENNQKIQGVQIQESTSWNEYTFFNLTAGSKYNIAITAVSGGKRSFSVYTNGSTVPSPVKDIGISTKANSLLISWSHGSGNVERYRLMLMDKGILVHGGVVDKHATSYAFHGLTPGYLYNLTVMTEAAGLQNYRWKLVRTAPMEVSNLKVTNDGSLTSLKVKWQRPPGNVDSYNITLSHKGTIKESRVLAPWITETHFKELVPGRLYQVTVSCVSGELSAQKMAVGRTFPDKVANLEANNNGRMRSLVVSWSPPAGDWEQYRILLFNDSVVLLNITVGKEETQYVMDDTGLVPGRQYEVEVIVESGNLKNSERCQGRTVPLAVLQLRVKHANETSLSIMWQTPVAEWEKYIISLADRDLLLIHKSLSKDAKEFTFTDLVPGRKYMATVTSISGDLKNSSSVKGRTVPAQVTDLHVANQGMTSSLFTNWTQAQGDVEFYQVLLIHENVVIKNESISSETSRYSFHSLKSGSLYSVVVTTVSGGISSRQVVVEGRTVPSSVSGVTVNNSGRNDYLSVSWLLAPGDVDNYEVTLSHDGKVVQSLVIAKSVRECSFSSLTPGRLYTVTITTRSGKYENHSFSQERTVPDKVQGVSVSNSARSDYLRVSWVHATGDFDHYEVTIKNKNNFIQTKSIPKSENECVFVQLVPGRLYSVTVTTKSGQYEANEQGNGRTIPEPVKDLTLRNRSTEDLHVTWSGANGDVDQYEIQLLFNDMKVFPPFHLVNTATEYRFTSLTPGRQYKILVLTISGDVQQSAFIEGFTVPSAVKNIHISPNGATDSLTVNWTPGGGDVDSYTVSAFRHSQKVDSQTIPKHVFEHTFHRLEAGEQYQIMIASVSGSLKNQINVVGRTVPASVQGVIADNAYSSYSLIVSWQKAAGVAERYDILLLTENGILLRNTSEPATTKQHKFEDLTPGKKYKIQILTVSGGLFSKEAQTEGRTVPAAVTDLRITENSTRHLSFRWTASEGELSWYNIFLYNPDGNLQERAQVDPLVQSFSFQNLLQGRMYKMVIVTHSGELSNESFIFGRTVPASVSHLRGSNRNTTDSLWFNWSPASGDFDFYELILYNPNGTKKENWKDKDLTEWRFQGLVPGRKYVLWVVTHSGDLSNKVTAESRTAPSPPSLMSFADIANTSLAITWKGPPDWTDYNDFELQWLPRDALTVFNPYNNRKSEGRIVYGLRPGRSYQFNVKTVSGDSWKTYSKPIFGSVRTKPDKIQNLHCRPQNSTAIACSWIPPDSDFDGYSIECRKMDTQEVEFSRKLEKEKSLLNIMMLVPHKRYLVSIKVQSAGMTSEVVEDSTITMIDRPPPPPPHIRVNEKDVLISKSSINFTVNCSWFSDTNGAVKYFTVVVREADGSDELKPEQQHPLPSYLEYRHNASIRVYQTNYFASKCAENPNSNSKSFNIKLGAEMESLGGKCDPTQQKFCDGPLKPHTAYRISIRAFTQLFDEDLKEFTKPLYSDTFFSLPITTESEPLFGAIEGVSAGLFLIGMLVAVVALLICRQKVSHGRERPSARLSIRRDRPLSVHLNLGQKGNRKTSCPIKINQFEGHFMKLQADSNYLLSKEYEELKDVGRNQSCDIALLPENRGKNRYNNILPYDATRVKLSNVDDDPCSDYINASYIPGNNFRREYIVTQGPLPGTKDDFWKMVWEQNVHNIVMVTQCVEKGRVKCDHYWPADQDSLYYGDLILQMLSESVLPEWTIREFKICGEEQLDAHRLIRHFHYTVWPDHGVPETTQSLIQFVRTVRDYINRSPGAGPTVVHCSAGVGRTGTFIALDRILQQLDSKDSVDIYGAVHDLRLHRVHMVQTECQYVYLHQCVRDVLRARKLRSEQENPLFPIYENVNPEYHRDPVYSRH
compound,measurement,setting,value
CCc1csc([C@H](Cc2ccc(NS(=O)(=O)O)cc2)NC(=O)[C@H](Cc2ccccc2)NC(=O)OC(C)(C)C)n1 [4-{(S)-2-[(S)-2-(tert-Butoxycarbonylamino)-3-phenylpropanamido]-2-(4-ethylthiazol-2-yl)ethyl}phenylsulfamic acid],Initial Body Wt,[1]; High 15 mg/kg/d group,364 ± 4.8
same,Initial Body Wt,[1]; Low 5 mg/kg/d group,365 ± 4.8
same,Ending Body Wt,[1]; [6],409 ± 5.5
same,Ending Body Wt,[1]; [7],413 ± 5.6
same,Calf blood flow as compared to vehicle,"[2]; SubQ continuous infusion, both doses (5 mg/kg/d and 15 mg/kg/d)",significant improvement
same,Blood Flow During exercise Calf (GPS),[2]; [6],75 ± 1.7 ml/min/100 g
same,Blood Flow During exercise Calf (GPS),[2]; [7],69 ± 2.0 ml/min/100 g
same,Calf blood flow response relative to VEGF,[2]; lower dose (5 mg/kg/d),did not elicit a maximal VEGF response
same,Blood pressures of the treatment groups,[3]; compared with VEGF and/or Vehicle groups,lower than the VEGF and/or Vehicle groups
same,Blood Pressure Post-Exercise,[3]; [6],133 ± 3.7
same,Heart Rate Exercise,[3]; [6],456 ± 13.0
same,Heart Rate Post-Exercise,[3]; [6],462 ± 14.8
same,Heart Rate Pre-Exercise,[3]; [6],428 ± 13.5
same,Blood Pressure Exercise,[3]; [8],144 ± 4.6
same,Blood Pressure Pre-Exercise,[3]; [8],137 ± 4.5
same,Blood Pressure Exercise,[3]; [7],142 ± 3.2
same,Heart Rate Exercise,[3]; [7],487 ± 10.1
same,Heart Rate Post-Exercise,[3]; [7],465 ± 18.8
same,Heart Rate Pre-Exercise,[3]; [7],429 ± 19.8
same,Blood Pressure Post-Exercise,"[3]; continuous SubQ infusion Low 5 mg/kg/d, in mmHg (unit assumed)",135 ± 3.1
same,Blood Pressure Pre-Exercise,[3]; [7],132 ± 3.9
CC(C)(C)C(=O)N[C@@H](Cc1ccc(NS(=O)(=O)O)cc1)c1nc(CO)cs1 [(S)-4-{2-[4-(hydroxymethyl)thiazol-2-yl]-2-pivalamidoethyl}phenyl-sulfamic acid],IC50,[4],50000 nM
same,IC50,[5],266 nM
CCOC(=O)c1csc([C@H](Cc2ccc(NS(=O)(=O)O)cc2)NC(=O)C(C)(C)C)n1 [(S)-4-{[2-(4-Ethoxycarbonyl)thiazol-2-yl]-2-pivalamidoethyl}phenylsulfamic acid],IC50,[4],44900 nM
same,IC50,[5],584 nM
CCc1csc([C@H](Cc2ccc(NS(=O)(=O)O)cc2)NC(=O)Cc2ccccc2)n1 [(S)-{4-[2-(4-Ethylthiazol-2-yl)-2-(phenylacetylamino)ethyl]-phenyl}sulfamic acid],IC50,[4],722 nM
same,IC50,[5],0.157 nM
CC(C)(C)OC(=O)N[C@@H](Cc1ccc(NS(=O)(=O)O)cc1)c1nc(-c2ccccc2)cs1 [[1-(S)-(Phenylthiazol-2-yl)-2-(4-sulfoaminophenyl)ethyl]-carbamic acid tert-butyl ester],IC50,[4],33000 nM
same,IC50,[5],49 nM
(S)-4-(2-(tert-Butoxycarbonyl)-2-(4-(2-(2-methoxy-2-oxoyethyl amino)-2-oxoethyl)thiazole-2-yl)ethyl)phenylsulfamic acid,IC50,[4],50000 nM
same,IC50,[5],132 nM
(S)-4-(2-(tert-Butoxycarbonylamino)-2-(2-pivalamidothiazol-4-yl)ethyl)phenylsulfamic acid,IC50,[4],9120 nM
same,IC50,[5],555 nM
VEGF,Blood Flow During exercise Calf (GPS),[2]; VEGF 15 μg/kg/d,76 ± 1.1 ml/min/100 g
same,GPS blood flow over the Vehicle control groups,[2]; VEGF treatment groups,significant improvement
